Data as given in patent US10961252B2, “Quinazoline and indole compounds to treat medical disorders” (Achillion Pharmaceuticals, Inc., priority 2016, dated 2021).
pIC50: −log10 of the molar value.

System: Normal Human Serum (NHS)
Experiment: Hemolysis assay: lysis of rabbit erythrocytes (RE) by Normal Human Serum (NHS)
Assay type: cell-based
Settings: rabbit erythrocyte, 0.5 h, Table 3, hemolysis of rabbit erythrocytes with NHS, GVB0 plus 10 mM Mg-EGTA, 37° C., read-out: IC50 (Stars)
Description: The hemolysis assay was previously described by G. Ruiz-Gomez, et al., J. Med. Chem. (2009) 52: 6042-6052. Prior to the assay, the optimum concentration of Normal Human Serum (NHS) needed to achieve 100% lysis of rabbit erythrocytes (RE) is determined by titration. In the assay, NHS (Complement Technology) is diluted in GVB^0 Buffer (0.1% gelatin, 5 mM Veronal, 145 mM NaCl, 0.025% NaN3, pH 7.3, Complement Technology) plus 10 mM Mg-EGTA and incubated with test compound at various concentrations for 15 minutes at 37° C. RE (Complement Technology) freshly suspended in GVB^0 plus 10 mM Mg-EGTA are added to a final concentration of 1×10^8 cells/mL and reactions are incubated for 30 minutes at 37° C. Positive control reactions (100% lysis) consist of GVB^0 plus 10 mM Mg-EGTA with NHS and RE but without test compound; negative control reactions (0% lysis) consist of GVB^0 plus 10 mM Mg-EGTA with RE only. Samples are centrifuged at 2000 g for 3 minutes and supernatants collected. Absorbance at 405 nm (A405) is recorded using a microplate spectrophotometer. IC50 values are calculated by nonlinear regression from the percentage of hemolysis as a function of test compound concentration.

Structure (SMILES) | pIC50
COc1cc(C)c2[nH]c(C)cc2c1CN1CC[C@@H](C)C[C@H]1c1ccc(C(=O)O)cc1 [Compound 24, 4-((2S, 4R)-1-((5-Methoxy-2,7-dimethyl-1H-indol-4-yl) Methyl)-4-methylpiperidin-2-yl) Benzoic Acid] | < 5.00
COc1cc(C)c2[nH]ccc2c1CN1CCC(C)CC1c1ccc(S(C)(=N)=O)cc1 (stereo not drawn) [Compound 25, 5-Methoxy-7-methyl-4-((4-methyl-2-(4-(S-methylsulfonimidoyl)phenyl)piperidin-1-yl)methyl)-1H-indole] | > 6.00
COc1cc(C)c2[nH]ccc2c1CN1CCC(C)CC1c1ccc(P(=O)(O)O)cc1 (stereo not drawn) [Compound 26, 4-(1-((5-Methoxy-7-methyl-1H-indol-4-yl)methyl)-4-methylpiperidin-2-yl)phenylphosphonic Acid] | > 6.00
COc1cc(C)c2[nH]ccc2c1CN1CCC(C)CC1c1ccc(C(=O)NO)cc1 (stereo not drawn) [Compound 27, N-Hydroxy-4-(1-((5-methoxy-7-methyl-1H-indol-4-yl)methyl)-4-methylpiperidin-2-yl)benzamide] | > 6.00
COc1cc(C)c2[nH]ccc2c1CN1CCC(C)CC1c1ccc(C(=O)O)c2c1CCCC2 (stereo not drawn) [Compound 28, 4-(1-((5-Methoxy-7-methyl-1H-indol-4-yl)methyl)-4-methylpiperidin-2-yl)-5,6,7,8-tetrahydronaphthalene-1-carboxylic Acid] | > 6.00
COc1cc(C)c2[nH]ccc2c1CN1CC[C@@H](C)C[C@H]1c1ccc(P(C)(=O)O)cc1 [Compound 29, 4-((2S, 4R)-1-((5-Methoxy-7-methyl-1H-indol-4-yl)methyl)-4-methylpiperidin-2-yl) Phenyl (Methyl) Phosphinic Acid] | > 6.00
COc1cc(C)c2[nH]ccc2c1CN1CC[C@@H](C)C[C@H]1c1ccc([S@@](C)(=N)=O)cc1 [Compound 30, 5-Methoxy-7-methyl-4-(((2S,4R)-4-methyl-2-(4-((S)—S-methylsulfonimidoyl)phenyl)piperidin-1-yl)methyl)-1H-indole] | > 6.00
COc1cc(C)c2[nH]ccc2c1CN1CC[C@@H](C)C[C@H]1c1ccc([S@](C)(=N)=O)cc1 [Compound 31, 5-Methoxy-7-methyl-4-(((2S,4R)-4-methyl-2-(4-((R)—S-methylsulfonimidoyl)phenyl)piperidin-1-yl)methyl)-H-indole] | > 6.00
COc1cc(C)c2[nH]ccc2c1CN1CC[C@@H](C)C[C@H]1c1ccc(P(=O)(O)O)cc1 [Compound 32, (4-((2S,4R)-1-((5-Methoxy-7-methyl-1H-indol-4-yl)methyl)-4-methylpiperidin-2-yl)phenyl)phosphonic Acid] | > 6.00
COc1cc(C)c2[nH]ccc2c1CN1CC[C@H](C)C[C@@H]1c1ccc(P(=O)(O)O)cc1 [Compound 33, 4-((2R, 4S)-1-((5-Methoxy-7-methyl-1H-indol-4-yl)methyl)-4-methylpiperidin-2-yl) Phenylphosphonic Acid] | 5.00 to 6.00
COc1cc(C)c2[nH]ccc2c1CN1CC[C@@H](C)C[C@H]1c1ccc(C(=O)O)c2c1CCCC2 [Compound 34, 4-((2S,4R)-1-((5-Methoxy-7-methyl-1H-indol-4-yl)methyl)-4-methylpiperidin-2-yl)-5,6,7,8-tetrahydronaphthalene-1-carboxylic Acid] | > 6.00
COc1cc(C)c2[nH]ccc2c1CN1CC[C@@H](C)C[C@@H]1c1ccc(C(=O)O)c2c1CCCC2 [Compound 35, 4-((2R,4R)-1-((5-Methoxy-7-methyl-1H-indol-4-yl)methyl)-4-methylpiperidin-2-yl)-5,6,7,8-tetrahydronaphthalene-1-carboxylic Acid] | < 5.00
